# Data published in patent US20040002441A1, “Recombination modulators and methods for producing and using the same” (priority 2000, published 2004).
# Key:
# [1] = target: T1, E. coli topoisomerase I (type Ia) (Escherichia coli, UniProt P06612); assay: biochemical; conditions: peptide concentrations up to 42 μM
# T1 sequence (P06612 1-865): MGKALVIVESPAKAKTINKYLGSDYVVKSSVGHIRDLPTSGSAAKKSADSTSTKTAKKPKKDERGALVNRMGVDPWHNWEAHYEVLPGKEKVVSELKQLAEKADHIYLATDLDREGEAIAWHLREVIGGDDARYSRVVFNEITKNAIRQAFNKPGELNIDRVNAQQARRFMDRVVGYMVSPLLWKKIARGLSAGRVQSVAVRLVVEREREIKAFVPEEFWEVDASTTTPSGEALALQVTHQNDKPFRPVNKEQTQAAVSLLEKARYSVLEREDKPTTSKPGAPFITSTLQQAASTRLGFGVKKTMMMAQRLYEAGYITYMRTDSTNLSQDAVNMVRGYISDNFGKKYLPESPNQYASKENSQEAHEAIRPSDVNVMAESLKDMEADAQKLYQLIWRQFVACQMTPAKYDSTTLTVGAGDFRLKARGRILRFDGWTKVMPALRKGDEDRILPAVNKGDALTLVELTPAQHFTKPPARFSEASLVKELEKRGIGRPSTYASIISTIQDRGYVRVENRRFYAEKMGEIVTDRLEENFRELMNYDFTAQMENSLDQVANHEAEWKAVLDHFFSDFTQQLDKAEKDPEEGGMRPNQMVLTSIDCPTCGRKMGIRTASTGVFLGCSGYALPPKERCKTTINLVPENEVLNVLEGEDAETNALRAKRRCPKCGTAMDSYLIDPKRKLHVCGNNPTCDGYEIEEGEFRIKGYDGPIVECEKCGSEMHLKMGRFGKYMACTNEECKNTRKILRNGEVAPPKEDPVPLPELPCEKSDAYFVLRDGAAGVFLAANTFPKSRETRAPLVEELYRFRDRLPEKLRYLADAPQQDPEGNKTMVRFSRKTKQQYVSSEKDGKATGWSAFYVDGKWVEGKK
# Text: E. coli topoisomerase I (TopA) exemplifies the type IA topoisomerase family. Type IA enzymes are mechanistically and structurally unrelated to the topoisomerase IB/tyrosine recombinase superfamily of DNA strand transferases.
# [2] = target: T2, Vaccinia topoisomerase (type Ib) (Vaccinia virus, UniProt P68698); assay: biochemical; conditions: peptide concentrations up to 42 μM
# T2 construct: made in house; host or cells: Escherichia coli BL21 infected with bacteriophage λCE6
# [3] = target: T2, Vaccinia topoisomerase (type Ib); assay: biochemical; type: biochemical
# [4] = target: T3, Lambda integrase (Int) (Bacteriophage lambda) (UniProt P03700); assay: cleavage_in_vitro
# T3 sequence: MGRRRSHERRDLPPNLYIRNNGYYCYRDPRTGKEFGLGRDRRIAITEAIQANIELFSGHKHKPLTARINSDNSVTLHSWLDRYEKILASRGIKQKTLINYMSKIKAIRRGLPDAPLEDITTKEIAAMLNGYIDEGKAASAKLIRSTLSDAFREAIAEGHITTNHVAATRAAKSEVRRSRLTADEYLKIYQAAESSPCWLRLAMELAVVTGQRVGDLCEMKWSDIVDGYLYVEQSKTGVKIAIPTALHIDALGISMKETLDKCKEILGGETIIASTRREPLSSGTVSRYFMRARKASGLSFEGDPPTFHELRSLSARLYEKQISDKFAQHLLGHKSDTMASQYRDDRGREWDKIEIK
substance,measurement,setting,value
WCHYNY,effect on DNA relaxation,[1],no effect
same,effect on DNA relaxation,[2],no effect
same,effect on transesterification (DNA cleavage),[3],did not inhibit transesterification
attL + attR excision substrates,activity,"[4]; excision with IHF and Xis, no peptide",> 70%
excision Holliday junction (attL x attR),activity,"[4]; Int alone HJ resolution, binds weakly alone, 42.4% with IHF, 14.4% with Xis, 58.2% with IHF+Xis, 95.3% with IHF+Xis no spermidine",7.2%
